From the supplement of paper PMC11061612

Experiments:
Test in all cases: combination Emax (second highest fraction inhibited in the dose matrix, 72 h); higher = more inhibition; extreme values may be limits of the assay
[1] = test system: MOLT-13 (T-Lymphoblastic Leukemia)
How it was run: (§1)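 Cell lines in DMEM/F12 or RPMI with 10% FBS were plated in 1536-well plates, held 24 hours at 37°C, 5% CO2, then given two-drug dose matrices for 72 hours (DMSO typically 0.2%). Viability was read by CellTiter-Glo 2.0 luminescence and scaled as inhibition from 0 (vehicle wells) to 1 (blank wells). Combination Emax is the second-highest inhibition in the matrix; Bliss excess is observed combination effect minus expected EA + EB − EA·EB, EA and EB being single-agent effects.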

[2] = test system: SNU-423 (Hepatocellular Carcinoma)
How it was run: as §1

[3] = test system: MM1S (Plasma Cell Myeloma)
How it was run: as §1

[4] = test system: PL4 (Pancreatic Carcinoma)
How it was run: as §1

[5] = test system: T84 (Colorectal Carcinoma)
How it was run: as §1

UACC-257 (Melanoma) = test system: UACC-257 (Melanoma)
How it was run: as §1

T47D (Breast Carcinoma) = test system: T47D (Breast Carcinoma)
How it was run: as §1

[6] = test system: OVCAR-3 (Ovarian Carcinoma)
How it was run: as §1

[7] = test system: BHT-101 (Thyroid Gland Carcinoma)
How it was run: as §1

WM35 (Melanoma) = test system: WM35 (Melanoma)
How it was run: as §1

NB1 (Neuroblastoma) = test system: NB1 (Neuroblastoma)
How it was run: as §1

[8] = test system: DBTRG-05MG (Glioblastoma)
How it was run: as §1

[9] = test system: KP-4 (Pancreatic Carcinoma)
How it was run: as §1

[10] = test system: NAMALWA (Burkitt's Lymphoma)
How it was run: as §1

SMILES	combination Emax [1]	combination Emax [2]	combination Emax [3]	combination Emax [4]	combination Emax [5]	combination Emax (UACC-257 (Melanoma))	combination Emax (T47D (Breast Carcinoma))	combination Emax [6]	combination Emax [7]	combination Emax (WM35 (Melanoma))	combination Emax (NB1 (Neuroblastoma))	combination Emax [8]	combination Emax [9]	combination Emax [10]
CN(C)CCCOc1ccc(-c2ccc3ncc4c(c3c2)n(C2CCOCC2)c(=O)n4C)cn1 [AZD0156] + C=CCn1c(=O)c2cnc(Nc3ccc(N4CCN(C)CC4)cc3)nc2n1-c1cccc(C(C)(C)O)n1 [AZD1775] (first compound max 1 µM, partner max 1 µM)	0.977	0.506	0.732	0.445	0.556	0.14	0.343	0.32	0.423	0.348	0.936	0.175	0.571	0.974
CN(C)CCCOc1ccc(-c2ccc3ncc4c(c3c2)n(C2CCOCC2)c(=O)n4C)cn1 [AZD0156] + CCN(CCO)CCCOc1ccc2c(Nc3cc(CC(=O)Nc4cccc(F)c4)[nH]n3)ncnc2c1 [AZD2811] (first compound max 1 µM, 7x7, partner max 1 µM)	0.99	0.194	0.34	0.256	0.023	0.119	0.282	0.105	0.203	0.119	0.641	0.154	0.327	0.402
CN(C)CCCOc1ccc(-c2ccc3ncc4c(c3c2)n(C2CCOCC2)c(=O)n4C)cn1 [AZD0156] + C[C@@H]1COCCN1C2=NC(=NC(=C2)C3(CC3)[S@](=N)(=O)C)C4=C5C=CNC5=NC=C4 [AZD6738] (first compound max 1 µM, 7x7, partner max 10 µM)	0.925	0.495	0.698	0.718	0.668	0.145	0.282	0.271	0.627	0.771	0.933	0.251	0.451	0.96
C=CCn1c(=O)c2cnc(Nc3ccc(N4CCN(C)CC4)cc3)nc2n1-c1cccc(C(C)(C)O)n1 [AZD1775] + C[C@@H]1COCCN1C2=NC(=NC(=C2)C3(CC3)[S@](=N)(=O)C)C4=C5C=CNC5=NC=C4 [AZD6738] (first compound max 1 µM, partner max 10 µM)	1	0.747		0.738	0.817	0.344	0.412	0.74	0.771	0.659	0.944	0.332		0.961
C=CCn1c(=O)c2cnc(Nc3ccc(N4CCN(C)CC4)cc3)nc2n1-c1cccc(C(C)(C)O)n1 [AZD1775] + O=C(c1cc(Cc2n[nH]c(=O)c3ccccc23)ccc1F)N1CCN(C(=O)C2CC2)CC1 [Olaparib] (first compound max 1 µM, partner max 10 µM)	0.975	0.731	0.779	0.494	0.745	0.166	0.362	0.532	0.406	0.303	0.819	0.248	0.721	0.96
CCN(CCO)CCCOc1ccc2c(Nc3cc(CC(=O)Nc4cccc(F)c4)[nH]n3)ncnc2c1 [AZD2811] + C=CCn1c(=O)c2cnc(Nc3ccc(N4CCN(C)CC4)cc3)nc2n1-c1cccc(C(C)(C)O)n1 [AZD1775] (first compound max 1 µM, partner max 1 µM)	1	0.59	0.776	0.554	0.645	0.154	0.314	0.262	0.318	0.197	0.869	0.195	0.651	0.977
CCN(CCO)CCCOc1ccc2c(Nc3cc(CC(=O)Nc4cccc(F)c4)[nH]n3)ncnc2c1 [AZD2811] + C[C@@H]1COCCN1C2=NC(=NC(=C2)C3(CC3)[S@](=N)(=O)C)C4=C5C=CNC5=NC=C4 [AZD6738] (first compound max 1 µM, 7x7, partner max 10 µM)	0.993	0.473	0.646	0.657	0.675	0.16	0.313	0.221	0.555	0.575	0.79	0.236	0.611	0.924
CCN(CCO)CCCOc1ccc2c(Nc3cc(CC(=O)Nc4cccc(F)c4)[nH]n3)ncnc2c1 [AZD2811] + O=C(c1cc(Cc2n[nH]c(=O)c3ccccc23)ccc1F)N1CCN(C(=O)C2CC2)CC1 [Olaparib] (first compound max 1 µM, 7x7, partner max 10 µM)	0.997	0.264	0.291	0.269	0.112	0.237	0.233	0.147	0.201	0.179	0.653	0.242	0.513	0.617
CN(CCO)CC[C@H](CSc1ccccc1)Nc1ccc(S(=O)(=O)NC(=O)c2ccc(N3CCC([C@@H](O)c4ccccc4-c4ccc(Cl)cc4)CC3)cc2)cc1S(=O)(=O)C(F)(F)F [AZD4320] + C1CN(CCC1(C(=O)N[C@@H](CCO)C2=CC=C(C=C2)Cl)N)C3=NC=NC4=C3C=CN4 [Capivasertib] (first compound max 1 µM, 7x7, partner max 3 µM)	0.913	0.406	1	0.497	0.136	0.1	0.364	0.147	0.351	0.215	0.689	0.619	0.101	
CN(CCO)CC[C@H](CSc1ccccc1)Nc1ccc(S(=O)(=O)NC(=O)c2ccc(N3CCC([C@@H](O)c4ccccc4-c4ccc(Cl)cc4)CC3)cc2)cc1S(=O)(=O)C(F)(F)F [AZD4320] + C=CCn1c(=O)c2cnc(Nc3ccc(N4CCN(C)CC4)cc3)nc2n1-c1cccc(C(C)(C)O)n1 [AZD1775] (first compound max 1 µM, partner max 1 µM)	1	0.804	1	0.708	0.528	0.103	0.195	0.828	0.659	0.331	0.931	0.92	0.716	0.982
CN(CCO)CC[C@H](CSc1ccccc1)Nc1ccc(S(=O)(=O)NC(=O)c2ccc(N3CCC([C@@H](O)c4ccccc4-c4ccc(Cl)cc4)CC3)cc2)cc1S(=O)(=O)C(F)(F)F [AZD4320] + CCN(CCO)CCCOc1ccc2c(Nc3cc(CC(=O)Nc4cccc(F)c4)[nH]n3)ncnc2c1 [AZD2811] (first compound max 1 µM, 7x7, partner max 1 µM)	1	0.466	1	0.544	0.0513	0.161	0.335	0.234	0.279	0.136	0.684	0.775	0.368	0.48
CN(CCO)CC[C@H](CSc1ccccc1)Nc1ccc(S(=O)(=O)NC(=O)c2ccc(N3CCC([C@@H](O)c4ccccc4-c4ccc(Cl)cc4)CC3)cc2)cc1S(=O)(=O)C(F)(F)F [AZD4320] + CN(C)CCCOc1ccc(-c2ccc3ncc4c(c3c2)n(C2CCOCC2)c(=O)n4C)cn1 [AZD0156] (first compound max 1 µM, 7x7, partner max 1 µM)	0.949	0.515	0.984	0.462	0.108	0.141	0.283	0.132	0.394	0.152	0.173	0.745	0.101	0.158
COc1nnc2ccc(N3CCC(c4ccc(OCCN5CCN(C)C(=O)[C@H]5C)cc4)CC3)nn12 [AZD5153] + CN(CC[C@H](CSC1=CC=CC=C1)NC2=C(C=C(C=C2)S(=O)(=O)NC(=O)C3=CC=C(C=C3)N4CCC(CC4)[C@H](C5=CC=CC=C5C6=CC=C(C=C6)Cl)O)S(=O)(=O)C(F)(F)F)CCO [AZD4320] (first compound max 1 µM, 7x7, partner max 1 µM)	1		1	0.809		0.413	0.472	0.601	0.737	0.718	0.248	0.399		
CC(=O)c1c(C)c2cnc(Nc3ccc(N4CCNCC4)cn3)nc2n(C2CCCC2)c1=O [Palbociclib] + CN(CC[C@H](CSC1=CC=CC=C1)NC2=C(C=C(C=C2)S(=O)(=O)NC(=O)C3=CC=C(C=C3)N4CCC(CC4)[C@H](C5=CC=CC=C5C6=CC=C(C=C6)Cl)O)S(=O)(=O)C(F)(F)F)CCO [AZD4320] (first compound max 10 µM, 7x7, partner max 1 µM)	0.975		0.964	0.483		0.183	0.344	0.204	0.598	0.229	0.597	0.529		
CCc1c2c(nc3ccc(O)cc13)-c1cc3c(c(=O)n1C2)COC(=O)[C@]3(O)CC [SN-38] + O=C(c1cc(Cc2n[nH]c(=O)c3ccccc23)ccc1F)N1CCN(C(=O)C2CC2)CC1 [Olaparib] (first compound max 0.3 µM, 7x7, partner max 10 µM)	1	0.495		0.903	0.528	0.343	0.625	0.687		0.448		0.407	0.817	0.986
C[C@@H](c1ccc2nccn2c1)n1nnc2ncc(-c3cnn(C)c3)nc21 [Savolitinib] + CN(CC[C@H](CSC1=CC=CC=C1)NC2=C(C=C(C=C2)S(=O)(=O)NC(=O)C3=CC=C(C=C3)N4CCC(CC4)[C@H](C5=CC=CC=C5C6=CC=C(C=C6)Cl)O)S(=O)(=O)C(F)(F)F)CCO [AZD4320] (first compound max 1 µM, 7x7, partner max 1 µM)	0.912		0.974	0.472		0.411	0.252	0.131	0.176	0.251	0.159	0.439		
